Patent publication US12091411B2, “IRAK degraders and uses thereof” (Kymera Therapeutics, Inc., priority 2022, dated 2024)
Read-outs that look alike come from different tables or passages of the source.

Target: T1, IRAK4 (Homo sapiens, UniProt Q9NWZ3)
T1 construct: Degradation of IRAK4 in OCI-LY10 was quantitatively measured using Meso Scale Discovery technology; endogenous in cells; host or cells: OCI-LY10
T1 sequence (Q9NWZ3 1-460): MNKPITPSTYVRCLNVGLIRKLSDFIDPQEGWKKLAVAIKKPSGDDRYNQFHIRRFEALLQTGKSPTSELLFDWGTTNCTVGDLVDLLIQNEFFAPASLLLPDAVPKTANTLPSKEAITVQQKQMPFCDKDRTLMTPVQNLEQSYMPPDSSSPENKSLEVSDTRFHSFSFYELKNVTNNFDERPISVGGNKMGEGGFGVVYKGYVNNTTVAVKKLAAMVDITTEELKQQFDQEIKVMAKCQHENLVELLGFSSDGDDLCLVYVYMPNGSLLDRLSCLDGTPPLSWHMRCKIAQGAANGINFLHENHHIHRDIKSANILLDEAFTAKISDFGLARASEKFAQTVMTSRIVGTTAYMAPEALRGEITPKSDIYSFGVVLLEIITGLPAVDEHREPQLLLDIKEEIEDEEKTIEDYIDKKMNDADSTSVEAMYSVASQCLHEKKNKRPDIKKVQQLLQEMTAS
Test: IRAK4 MSD Degradation in OCI-LY10
Format: cell-based
Conditions: OCI-LY10 cells, MSD
Outline: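 OCI-LY10 cells exposed to 8-point 1:3 compound series (top 1 to 10 μM) for 4 to 24 h at 37 °C, 5% CO2. Lysate IRAK4 quantified by MSD sandwich immunoassay. DC50 from three-parameter logistic fit, binned A (<0.01 μM) to D (>0.2 μM or not tested).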

[1] = 4 hrs incubation, read-out: IRAK4 degradation in OCI-LY10 at 4 hrs: DC50
[2] = 24 hrs incubation, read-out: IRAK4 degradation in OCI-LY10 at 24 hrs: DC50

| DC50 [1] [nM] | DC50 [2] [nM] | Structure (SMILES) |
| --- | --- | --- |
| 10 to 100 | 10 to 100 | O=C1CCC(c2ccc(C#CCOC3CCN(C[C@H]4CC[C@H](n5cc(NC(=O)c6cnn7ccc(N8C[C@H]9C[C@@H]8CO9)nc67)c(C(F)F)n5)CC4)CC3)cc2)C(=O)N1 (some centres unmarked) [I-198] |
| > 200 | > 200 | Cn1c(=O)n(C2CCC(=O)NC2=O)c2cccc(C3CCN(C[C@H]4CC[C@H](n5cc6cc(NC(=O)c7cccc(C(F)(F)F)n7)c(F)cc6n5)CC4)CC3(F)F)c21 (some centres unmarked) [I-449] |
| > 200 | > 200 | Cn1c(=O)n(C2CCC(=O)NC2=O)c2cccc(N3CC(F)(CN4CCN(C[C@H]5CC[C@H](n6cc(NC(=O)c7cnn8ccc(N9C[C@H]%10CC9CO%10)nc78)c(C(F)F)n6)CC5)CC4)C3)c21 (some centres unmarked) [I-604] |
| > 200 | > 200 | Cn1c(=O)n(C2CCC(=O)NC2=O)c2cccc(C#CCOC3CCN(C[C@H]4CC[C@H](n5cc(NC(=O)c6cnn7ccc(N8C[C@H]9C[C@@H]8CO9)nc67)c(F)n5)CC4)CC3)c21 (some centres unmarked) [I-280] |
| > 200 | > 200 | COc1cc2nn([C@H]3CC[C@H](CN4CCC5(CC4)CCN(c4cccc6c(C7CCC(=O)NC7=O)cncc46)CC5)CC3)cc2cc1NC(=O)c1cncc(C#N)c1 (some centres unmarked) [I-253] |
| > 200 | > 200 | Cn1c(=O)n(C2CCC(=O)NC2=O)c2cccc(N3CC(OC4CCN(C[C@H]5CC[C@H](n6cc(NC(=O)c7cnn8ccc(N9C[C@H]%10C[C@@H]9CO%10)nc78)c(C(F)F)n6)CC5)CC4)C3)c21 (some centres unmarked) [I-601] |
| 10 to 100 | > 200 | Cn1c(=O)n(C2CCC(=O)NC2=O)c2cccc(C#CCO[C@@H]3CCN(C[C@H]4CC[C@H](n5cc(NC(=O)c6cnn7ccc(N8C[C@H]9C[C@@H]8CO9)nc67)c(C(F)F)n5)CC4)C[C@@H]3F)c21 (some centres unmarked) [I-22] |
| > 200 | > 200 | CN(C[C@H]1CC[C@H](n2cc(NC(=O)c3cnn4ccc(N5CC(F)(F)C5)nc34)c(C(F)F)n2)CC1)C1CCN(c2cccc3c2n(C)c(=O)n3C2CCC(=O)NC2=O)CC1(F)F (some centres unmarked) [I-507] |
| < 10 | > 200 | Cn1c(=O)n(C2CCC(=O)NC2=O)c2cccc(C#CCN3CCN(C[C@H]4CC[C@H](n5cc(NC(=O)c6cnn7ccc(N8CCOC(C)(C)C8)nc67)c(C(F)F)n5)CC4)CC3)c21 (some centres unmarked) [I-111] |
| > 200 | < 10 | Cn1c(=O)n(C2CCC(=O)NC2=O)c2cccc(C3CCN(C[C@H]4CC[C@H](n5cc6cc(NC(=O)c7cnn8ccc(N9C[C@H]%10C[C@@H]9CO%10)nc78)ccc6n5)CC4)CC3(F)F)c21 (some centres unmarked) [I-719] |
| < 10 | < 10 | CC(C)(O)c1cc2nn([C@H]3CC[C@H](CNCCNc4cccc5c4C(=O)N(C4CCC(=O)NC4=O)C5=O)CC3)cc2cc1NC(=O)c1cccc(C(F)(F)F)n1 (some centres unmarked) [I-144] |
| > 200 | > 200 | Cc1nn([C@H]2CC[C@H](CN3CCC(OCC#Cc4cccc5c4n(C)c(=O)n5C4CCC(=O)NC4=O)CC3)CC2)cc1NC(=O)c1cnn2ccc(N3C[C@H]4C[C@@H]3CO4)nc12 (some centres unmarked) [I-168] |
| > 200 | > 200 | CO[C@H]1CN(c2cccc3c2n(C)c(=O)n3C2CCC(=O)NC2=O)C[C@@H]1N(C)C[C@H]1CC[C@H](n2cc3cc(NC(=O)c4cccc(C(F)(F)F)n4)ccc3n2)CC1 (some centres unmarked) [I-492] |
| 10 to 100 | > 200 | Cn1c(=O)n(C2CCC(=O)NC2=O)c2cccc(C#CCN3CCN(C[C@H]4CC[C@H](n5cc(NC(=O)c6cnn7ccc(N8C[C@H]9OC[C@@H]8O9)nc67)c(C(F)F)n5)CC4)CC3)c21 (some centres unmarked) [I-44] |
| > 200 | > 200 | Cn1c(=O)n(C2CCC(=O)NC2=O)c2cccc(C#CCOC3CCN(C[C@H]4CC[C@H](n5cc(NC(=O)c6cncc(C#N)c6)c(C(C)(C)O)n5)CC4)CC3)c21 (some centres unmarked) [I-266] |
| > 200 | > 200 | CN(C[C@H]1CC[C@H](n2cc(NC(=O)c3cnn4ccc(N5C[C@H]6C[C@@H]5CO6)nc34)c(C(F)F)n2)CC1)C1CN(c2cccc3c2n(C)c(=O)n3C2CCC(=O)NC2=O)C1 (some centres unmarked) [I-602] |
| > 200 | > 200 | Cn1c(=O)n(C2CCC(=O)NC2=O)c2cccc(C#CCOC3CCN(C[C@H]4CC[C@H](c5nc(C(F)F)c(NC(=O)c6cnn7ccc(N8C[C@H]9C[C@@H]8CO9)nc67)s5)CC4)CC3)c21 (some centres unmarked) [I-205] |
| < 10 | > 200 | O=C1CCN(c2cncc3cc(N4CCN(C5CCN(C[C@H]6CC[C@H](n7cc(NC(=O)c8cnn9ccc(N%10C[C@H]%11C[C@@H]%10CO%11)nc89)c(C(F)F)n7)CC6)CC5)CC4)ccc23)C(=O)N1 [I-77] |
| > 200 | 10 to 100 | Cn1c(=O)n(C2CCC(=O)NC2=O)c2ccc(N3CC4(CCN(C[C@H]5CC[C@H](n6cc7cc(NC(=O)c8cccc(C(F)(F)F)n8)ncc7n6)CC5)CC4(F)F)C3)c(F)c21 (some centres unmarked) [I-737] |
